From paper PMC6368403, “Identification of a bilirubin receptor that may mediate a component of cholestatic itch” (eLife, 2019) come the findings set out here.

Values joined by “and” are separate entries in the source; they are usually repeats but may differ in a detail not shown here. Identical values can stand only once.

The subject of assay [1] is mice. Briefly: Scratching bouts after subcutaneous injection into the nape of the neck / back. In kind it is in vivo, mouse. As to conditions: for Scratching bouts binned according to 5 min intervals (time course of itch behavior): one column per mouse, values of a mouse sum to 1 (Fig 1B). The procedure:
All applicable behavioral tests were performed and analysed with the experimenter blind to genotype. […] On the day before the experiment, animals were placed in the test chamber for 30 min before being subjected to a series of three mock injections with 5 min break periods in between. On the day of the experiment, animals were first allowed to acclimatize to the test chamber for 10 min before injection. […] A bout of scratching was defined as a continuous scratching movement with either hindpaw directed at the area of the injection site. In the cheek injection model, a wipe was defined as a single forepaw stroking the site of the injection. Use of both forepaws on the face or cheek was considered as grooming behavior. […] For H1R block, 30 mg/kg of cetirizine HCl (pH 7.4) was given intraperitoneally thirty minutes prior to injection of bilirubin. Licking behavior was quantified in seconds and identified as the licking of the toes or footpad of the hind paw site of injection that was neither preceded nor followed by licking of any other portion of the body.

Assay [2] deals with T1, MRGPRA1 (Mus musculus, UniProt Q91WW5).
T1 construct: expressed in transfected cells
T1 sequence (Q91WW5 1-304): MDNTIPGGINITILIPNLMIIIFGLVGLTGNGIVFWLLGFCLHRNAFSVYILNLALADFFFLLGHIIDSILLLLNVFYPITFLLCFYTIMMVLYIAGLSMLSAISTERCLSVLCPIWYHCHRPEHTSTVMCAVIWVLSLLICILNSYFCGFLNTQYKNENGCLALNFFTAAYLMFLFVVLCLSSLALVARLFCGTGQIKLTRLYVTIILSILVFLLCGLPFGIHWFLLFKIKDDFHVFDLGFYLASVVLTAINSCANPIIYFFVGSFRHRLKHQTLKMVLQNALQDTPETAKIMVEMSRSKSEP
The experiment in a line: Ca2+ imaging and concentration-Ca2+ response (EC50) in HEK293 cells expressing MRGPRA1. In kind it is cell-based. More on the design: Ca2+ response: unit not given here. As to conditions: for Calcium response / activation of MRGPRA1-expressing cells: 50 µM bilirubin, 30 µM FMRF; for Ca2+ response (concentration-response curve): MRGPRA1, triplicate wells (Fig 2D); for Ca2+ response: bilirubin, 3 replicate columns. The protocol: All cultured cells were maintained in DMEM supplemented with 10% FBS and 1% Penicillin/Streptomycin at 37°C, 5% CO2. All data included were generated from cells tested for mycoplasma and found to be negative. Cells were imaged in calcium imaging buffer (CIB; 10 mM HEPES, 1.2 mM NaHCO3, 130 mM NaCl, 3 mM KCl, 2.5 mM CaCl2, 0.6 mM MgCl2, 20 mM glucose, and 20 mM sucrose at pH 7.4 and 290–300 mOsm). To monitor changes in intracellular [Ca^2+] ([Ca^2+]i), cells were loaded with either Fura 2-AM (HEK293 cells) or Fluo 4-AM (DRG neurons and mast cells) for 30 min in the dark at 37°C in CIB just prior to imaging. With Fura 2-AM, emission at 510 nm was monitored from excitation at both 340 nm and 380 nm. With Fluo 4-AM, emission at 520 nm was monitored from excitation at 488 nm. Cells were identified as responding if the intracellular [Ca^2+] rose by either 50% compared to baseline or 50% compared to the [Ca^2+]i change assayed during addition of 50 mM KCl (neurons only). Damaged, detached, high-baseline, and motion-activated cells were excluded from analysis.
In initial screens, HEK293 cells stably expressing the murine G-protein alpha-subunit Gα15, a unique Gα protein that non-selectively couples a large variety of GPCRs to phospholipase C ^30, were plated on poly-D-lysine-coated coverslips and transiently transfected with constructs encoding the MRGRPR of interest. 12–24 hr later, cells were loaded with the Fura 2-AM. Unless otherwise specified, compounds were perfused into the imaging chamber for approximately thirty seconds after a baseline period was established. Response was then monitored at 5 s intervals for an additional 60 s.
HEK293 cells stably expressing either MRGPRA1, MRGPRX4, and MRGRPC11 were seeded in poly-D-lysine-coated 96-well plates at 10,000 cells/well. Cells were loaded with Fura 2–AM, washed twice, and maintained in CIB. Haem metabolites were freshly dissolved in DMSO in dim light and then diluted into a buffer comprised of 20 mM Tris and 150 mM NaCl at pH 8.8. Potential changes in pH were evaluated prior to each experiment. EC50 values were determined from dose-responses performed in triplicate, repeated 2–4 times. To determine potential antagonism by QWF against bilirubin, cells were treated with varying doses of QWF for 1 min in CIB prior to application of agonist.
HEK293 stable cell lines expressing GFP-tagged MRGPRA3, MRGPRC11, MRGPRD, MRGPRX1, and MRGPRX2 were generated in previously described reports ([Liu et al., 2009]; [Liu et al., 2012]; [McNeil et al., 2015]). Briefly, plasmids containing the receptor of interest were transfected into HEK cells using Lipofectamine 3000. After 3 days, cells were then selected using 0.5 mg/mL G418. After 3 weeks, monoclonal colonies were established and each the highest expressing clones were identified. For this study, Mrgpra1 and MRGPRX4 were inserted into pEGFP-N1 and transfected into HEK293 cells. MRGPR-positive cells were selected using 0.5 mg/mL G418 for three weeks, after which GFP-positive cells were sorted by FACS and monoclonally expanded. Two lines expressing similar levels of MRGPRA1 and MRGPRX4, as measured by GFP fluorescence, were selected for study.

Take `C=CC1=C(C)/C(=C/c2[nH]c(Cc3[nH]c(/C=C4\NC(=O)C(C)=C4C=C)c(C)c3CCC(=O)O)c(CCC(=O)O)c2C)NC1=O` [bilirubin, bilirubin IXα]: the Scratching bouts in assay [1] (60 μg bilirubin pre-incubated with 1% human serum albumin (+HSA), nape, WT mice (Fig 1A)) worked out at 7. The “Scratching of A1 KO animals versus WT mice” value in assay [1] (60 µg injected) is “scratched significantly less than WT mice”. Besides, the “Scratching of BVR KO mice” value in assay [1] (150 µg chloroquine or 60 µg bilirubin, 30 min) was “scratched normally”. Further, the “Scratching bouts to chloroquine plus bilirubin” value in assay [1] (1 mM chloroquine plus 500 µM bilirubin injected into back) is given as “Synergism of bilirubin with chloroquine pruritus”. Further, the “Less scratching of Mrgpr-cluster KO animals than wild type mice” value in assay [1] (bilirubin injection (Fig 1C)) was “approximately 75%”. The “Scratching” value in assay [1] (bilirubin pre-incubated with excess human serum albumin) is “elicited fewer scratches”. Besides, the “Scratching at the site of injection” value in assay [1] (pathophysiologic concentrations, s.c. into the nape) is “stimulated scratching in a dose-dependent manner”. Also, the “Scratching bouts binned according to 5 min intervals (time course of itch behavior)” value in assay [1] (time 5 min) was 0 (10×) and 0.09677 and 0.08333 and 0.1304 and 0.2264 and 0.2353 and 0.07317; in assay [1] (time 10 min) it was 0.1786 and 0.5556 and 0.32 and 0.3226 and 0 (4×) and 0.1304 and 0.04 and 0.15 and 0.2642 and 0.1026 and 0.3529 and 0.2941 and 0.05128; in assay [1] (time 15 min), 0.25 and 0.4444 and 0.32 and 0.2258 and 0.1667 and 0.3913 and 0.66 and 0.1 and 0.1698 and 0.5116 and 0.2051 and 0.5 and 0.2941 and 0.2647 and 0.1951 and 0.2308; in assay [1] (time 20 min), 0.07143 and 0 (2×) and 0.16 and 0.06452 and 0.08333 and 0.3043 and 0.1 and 0.45 and 0.1509 and 0.4419 and 0.4872 and 0.1364 and 0.08824 and 0.2195 and 0.1026; in assay [1] (time 25 min), 0.07143 and 0 (3×) and 0.2 and 0.03226 and 0.3333 and 0.04348 and 0.06 and 0.15 and 0.04651 and 0.2727 and 0.1765 and 0.05882 and 0.3659 and 0.6154; in assay [1] (time 30 min) it was 0.4286 and 0 (5×) and 0.2581 and 0.3333 and 0.14 and 0.15 and 0.1887 and 0.2051 and 0.09091 and 0.1765 and 0.05882 and 0.1463. For the same molecule, the “Calcium response / activation of MRGPRA1-expressing cells” value (“Calcium response / activation” below) in assay [2] is recorded as “exhibited a calcium response”. In addition, the “Ca2+ response (concentration-response curve)” value in assay [2] ([Ligand] 3.90625e-6 M) is 1.244 (2×) and 1.27; in assay [2] ([Ligand] 7.8125e-6 M) it was 1.285 and 1.272 and 1.244; in assay [2] ([Ligand] 1.5625e-5 M) it was 1.239 (2×) and 1.229; in assay [2] ([Ligand] 3.125e-5 M) it was 1.214 and 1.216 and 1.186; in assay [2] ([Ligand] 6.25e-5 M), 1.236 and 1.293 and 1.259; in assay [2] ([Ligand] 0.000125 M), 1.409 and 1.368 and 1.342. Besides, the “Ca2+ response (concentration-response curve)” value was 1.512 and 1.513 and 1.452 in assay [2] ([Ligand] 0.00025 M); 1.582 and 1.563 and 1.522 in assay [2] ([Ligand] 0.0005 M). For the same molecule, the “Ca2+ response” value was 92.1113 and 105.486 and 102.402 in assay [2] ([Ligand] (M) -3 (log scale)); 69.422 and 70.1483 and 63.5847 in assay [2] ([Ligand] (M) -3.30103 (log scale)); 71.8089 and 75.8019 and 75.1545 in assay [2] ([Ligand] (M) -3.60206 (log scale)); 61.2591 and 54.8317 and 55.4389 in assay [2] ([Ligand] (M) -3.90309 (log scale)); 49.8998 and 18.4414 and 32.057 in assay [2] ([Ligand] (M) -4.20412 (log scale)); 6.418 and 7.051 and 1.245 in assay [2] ([Ligand] (M) -4.50515 (log scale)). The “Ca2+ response” value in assay [2] ([Ligand] (M) -4.80618 (log scale)) is 27.9538 and 0 (2×); in assay [2] ([Ligand] (M) -5.10721 (log scale)), 34.8054 and 0 (2×).

On to `C=CC1=C(C)/C(=C/c2[nH]c(Cc3[nH]c(/C=C4\NC(=O)C(C)=C4C=C)c(C)c3CCC(=O)NCCS(=O)(=O)O)c(CCC(=O)NCCS(=O)(=O)O)c2C)NC1=O` [conjugated bilirubin, bilirubin ditaurate], for which the “Calcium response / activation” value in assay [2] is “activated MRGPRA1-expressing cells”. For the same molecule, the “Ca2+ response (concentration-response curve)” value in assay [2] ([Ligand] 7.8125e-6 M) is 1.221 and 1.276 and 1.273; in assay [2] ([Ligand] 1.5625e-5 M) it was 1.253 and 1.283 and 1.252; in assay [2] ([Ligand] 3.125e-5 M), 1.222 and 1.225 and 1.221; in assay [2] ([Ligand] 6.25e-5 M), 1.19 and 1.186 and 1.177; in assay [2] ([Ligand] 0.000125 M), 1.212 and 1.254 and 1.214; in assay [2] ([Ligand] 0.00025 M), 1.3325 and 1.3437 and 1.301. Also, the “Ca2+ response (concentration-response curve)” value in assay [2] ([Ligand] 0.0005 M) was 1.4484 and 1.4326 and 1.424; in assay [2] ([Ligand] 0.001 M), 1.572 and 1.554 and 1.499.

Regarding hemin, the “Scratching behavior” value in assay [1] (metabolite injected into mice (Fig 1D)) is on record as “did not induce scratching”. Moreover, the “Calcium response / activation” value in assay [2] is reported as “failed to activate MRGPRA1”.
